{
  "source": "PubChem BioAssay AID1963830",
  "about": "(Molecular Pharmacology Branch, DTP, NCI, 2024)",
  "test_system": "922993-354-T-J3-PDC complex spheroid viability",
  "assay": "Anticancer human tumor 922993-354-T-J3-PDC patient-derived endometrial carcinoma cell line growth inhibition [POLQ]",
  "settings": "for IC50: curve of first compound; for viability, T/C: stronger effect = lower value",
  "method_in_brief": "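Complex spheroid viability model combining PDC tumour cells with endothelial (HUVEC) and MSC stromal cells. Novobiocin, ART-558 or RP6685 were tested singly and in combination with standard and investigational anticancer drugs. Each was titrated in half-log steps from near clinical Cmax, or from 10 microM where Cmax was unknown.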",
  "key": {"[1]": {"settings": "second compound 0.0316 µM, first compound 0.0316 µM"}, "[2]": {"settings": "second compound 0.0316 µM, first compound 0.1 µM"}, "[3]": {"settings": "second compound 0.0316 µM, first compound 0.316 µM"}, "[4]": {"settings": "second compound 0.0316 µM, first compound 1 µM"}, "[5]": {"settings": "second compound 0.0316 µM, first compound 3.16 µM"}, "[6]": {"settings": "second compound 0.0316 µM, first compound 10 µM"}, "[7]": {"settings": "second compound 0.1 µM, first compound 0.0316 µM"}, "[8]": {"settings": "second compound 0.1 µM, first compound 0.1 µM"}, "[9]": {"settings": "second compound 0.1 µM, first compound 0.316 µM"}, "[10]": {"settings": "second compound 0.1 µM, first compound 1 µM"}, "[11]": {"settings": "second compound 0.1 µM, first compound 3.16 µM"}, "[12]": {"settings": "second compound 0.1 µM, first compound 10 µM"}, "[13]": {"settings": "second compound 0.316 µM, first compound 0.0316 µM"}, "[14]": {"settings": "second compound 0.316 µM, first compound 0.1 µM"}, "[15]": {"settings": "second compound 0.316 µM, first compound 0.316 µM"}, "[16]": {"settings": "second compound 0.316 µM, first compound 1 µM"}, "[17]": {"settings": "second compound 0.316 µM, first compound 3.16 µM"}, "[18]": {"settings": "second compound 0.316 µM, first compound 10 µM"}, "[19]": {"settings": "second compound 1 µM, first compound 0.0316 µM"}, "[20]": {"settings": "second compound 1 µM, first compound 0.1 µM"}, "[21]": {"settings": "second compound 1 µM, first compound 0.316 µM"}, "[22]": {"settings": "second compound 1 µM, first compound 1 µM"}, "[23]": {"settings": "second compound 1 µM, first compound 3.16 µM"}, "[24]": {"settings": "second compound 1 µM, first compound 10 µM"}, "[25]": {"settings": "second compound 3.16 µM, first compound 0.0316 µM"}, "[26]": {"settings": "second compound 3.16 µM, first compound 0.1 µM"}, "[27]": {"settings": "second compound 3.16 µM, first compound 0.316 µM"}, "[28]": {"settings": "second compound 3.16 µM, first compound 1 µM"}, "[29]": {"settings": "second compound 3.16 µM, first compound 3.16 µM"}, "[30]": {"settings": "second compound 3.16 µM, first compound 10 µM"}, "[31]": {"settings": "second compound 10 µM, first compound 0.0316 µM"}, "[32]": {"settings": "second compound 10 µM, first compound 0.1 µM"}, "[33]": {"settings": "second compound 10 µM, first compound 0.316 µM"}, "[34]": {"settings": "second compound 10 µM, first compound 1 µM"}, "[35]": {"settings": "second compound 10 µM, first compound 3.16 µM"}, "[36]": {"settings": "second compound 10 µM, first compound 10 µM"}},
  "data": [
    {"compound": "O=C(c1cc(Cc2n[nH]c(=O)c3ccccc23)ccc1F)N1CCN(C(=O)C2CC2)CC1", "note": "+ COC1C(OC(N)=O)C(O)C(Oc2ccc3c(O)c(NC(=O)c4ccc(O)c(CC=C(C)C)c4)c(=O)oc3c2C)OC1(C)C;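 note: spheroids exposed to the agents for one week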;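 for viability, T/C: 100% = DMSO vehicle control wells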", "values": [
      {"measurement": "IC50", "setting": "second compound 0.0316 µM", "value": "> 10", "unit": "µM"},
      {"measurement": "IC50", "setting": "second compound 0.1 µM", "value": "> 10", "unit": "µM"},
      {"measurement": "IC50", "setting": "second compound 0.316 µM", "value": "> 10", "unit": "µM"},
      {"measurement": "IC50", "setting": "second compound 1 µM", "value": "> 10", "unit": "µM"},
      {"measurement": "IC50", "setting": "second compound 3.16 µM", "value": "> 10", "unit": "µM"},
      {"measurement": "IC50", "setting": "second compound 10 µM", "value": "> 10", "unit": "µM"},
      {"measurement": "viability, T/C", "setting": "[1]", "value": 110, "unit": "%"},
      {"measurement": "viability, T/C", "setting": "[2]", "value": 98, "unit": "%"},
      {"measurement": "viability, T/C", "setting": "[3]", "value": 101, "unit": "%"},
      {"measurement": "viability, T/C", "setting": "[4]", "value": 102, "unit": "%"},
      {"measurement": "viability, T/C", "setting": "[5]", "value": 103, "unit": "%"},
      {"measurement": "viability, T/C", "setting": "[6]", "value": 86.8, "unit": "%"},
      {"measurement": "viability, T/C", "setting": "[7]", "value": 115, "unit": "%"},
      {"measurement": "viability, T/C", "setting": "[8]", "value": 95, "unit": "%"},
      {"measurement": "viability, T/C", "setting": "[9]", "value": 106, "unit": "%"},
      {"measurement": "viability, T/C", "setting": "[10]", "value": 104, "unit": "%"},
      {"measurement": "viability, T/C", "setting": "[11]", "value": 89.8, "unit": "%"},
      {"measurement": "viability, T/C", "setting": "[12]", "value": 98.5, "unit": "%"},
      {"measurement": "viability, T/C", "setting": "[13]", "value": 94.6, "unit": "%"},
      {"measurement": "viability, T/C", "setting": "[14]", "value": 107, "unit": "%"},
      {"measurement": "viability, T/C", "setting": "[15]", "value": 82.9, "unit": "%"},
      {"measurement": "viability, T/C", "setting": "[16]", "value": 83.2, "unit": "%"},
      {"measurement": "viability, T/C", "setting": "[17]", "value": 93.5, "unit": "%"},
      {"measurement": "viability, T/C", "setting": "[18]", "value": 97.6, "unit": "%"},
      {"measurement": "viability, T/C", "setting": "[19]", "value": 95.2, "unit": "%"},
      {"measurement": "viability, T/C", "setting": "[20]", "value": 96.7, "unit": "%"},
      {"measurement": "viability, T/C", "setting": "[21]", "value": 86.4, "unit": "%"},
      {"measurement": "viability, T/C", "setting": "[22]", "value": 98, "unit": "%"},
      {"measurement": "viability, T/C", "setting": "[23]", "value": 98.1, "unit": "%"},
      {"measurement": "viability, T/C", "setting": "[24]", "value": 90.2, "unit": "%"},
      {"measurement": "viability, T/C", "setting": "[25]", "value": 90, "unit": "%"},
      {"measurement": "viability, T/C", "setting": "[26]", "value": 95.7, "unit": "%"},
      {"measurement": "viability, T/C", "setting": "[27]", "value": 90.6, "unit": "%"},
      {"measurement": "viability, T/C", "setting": "[28]", "value": 87, "unit": "%"},
      {"measurement": "viability, T/C", "setting": "[29]", "value": 95.7, "unit": "%"},
      {"measurement": "viability, T/C", "setting": "[30]", "value": 85.8, "unit": "%"},
      {"measurement": "viability, T/C", "setting": "[31]", "value": 88.3, "unit": "%"},
      {"measurement": "viability, T/C", "setting": "[32]", "value": 84, "unit": "%"},
      {"measurement": "viability, T/C", "setting": "[33]", "value": 87.8, "unit": "%"},
      {"measurement": "viability, T/C", "setting": "[34]", "value": 68.5, "unit": "%"},
      {"measurement": "viability, T/C", "setting": "[35]", "value": 87.5, "unit": "%"},
      {"measurement": "viability, T/C", "setting": "[36]", "value": 68.5, "unit": "%"}
    ]},
    {"compound": "CCc1cc2c(N3CCc4c(cc(Cn5ccnc5)cc4-c4cn(C)nc4C(F)(F)F)C3=O)ccnc2c(OC)n1", "note": "+ Nc1ccc(C#CCN(C(=O)Cc2ncc(C(F)(F)F)cc2C(F)(F)F)c2ccc(F)cc2)nn1", "values": [
      {"measurement": "IC50", "setting": "second compound 0.0316 µM", "value": "> 10", "unit": "µM"},
      {"measurement": "IC50", "setting": "second compound 0.1 µM", "value": "> 10", "unit": "µM"},
      {"measurement": "IC50", "setting": "second compound 0.316 µM", "value": "> 10", "unit": "µM"},
      {"measurement": "IC50", "setting": "second compound 1 µM", "value": "> 10", "unit": "µM"},
      {"measurement": "IC50", "setting": "second compound 3.16 µM", "value": "> 10", "unit": "µM"},
      {"measurement": "IC50", "setting": "second compound 10 µM", "value": "> 10", "unit": "µM"},
      {"measurement": "viability, T/C", "setting": "[1]", "value": 104, "unit": "%"},
      {"measurement": "viability, T/C", "setting": "[2]", "value": 103, "unit": "%"},
      {"measurement": "viability, T/C", "setting": "[3]", "value": 105, "unit": "%"},
      {"measurement": "viability, T/C", "setting": "[4]", "value": 107, "unit": "%"},
      {"measurement": "viability, T/C", "setting": "[5]", "value": 107, "unit": "%"},
      {"measurement": "viability, T/C", "setting": "[6]", "value": 102, "unit": "%"},
      {"measurement": "viability, T/C", "setting": "[7]", "value": 106, "unit": "%"},
      {"measurement": "viability, T/C", "setting": "[8]", "value": 102, "unit": "%"},
      {"measurement": "viability, T/C", "setting": "[9]", "value": 107, "unit": "%"},
      {"measurement": "viability, T/C", "setting": "[10]", "value": 108, "unit": "%"},
      {"measurement": "viability, T/C", "setting": "[11]", "value": 106, "unit": "%"},
      {"measurement": "viability, T/C", "setting": "[12]", "value": 101, "unit": "%"},
      {"measurement": "viability, T/C", "setting": "[13]", "value": 105, "unit": "%"},
      {"measurement": "viability, T/C", "setting": "[14]", "value": 102, "unit": "%"},
      {"measurement": "viability, T/C", "setting": "[15]", "value": 103, "unit": "%"},
      {"measurement": "viability, T/C", "setting": "[16]", "value": 105, "unit": "%"},
      {"measurement": "viability, T/C", "setting": "[17]", "value": 103, "unit": "%"},
      {"measurement": "viability, T/C", "setting": "[18]", "value": 99.6, "unit": "%"},
      {"measurement": "viability, T/C", "setting": "[19]", "value": 105, "unit": "%"},
      {"measurement": "viability, T/C", "setting": "[20]", "value": 105, "unit": "%"},
      {"measurement": "viability, T/C", "setting": "[21]", "value": 102, "unit": "%"},
      {"measurement": "viability, T/C", "setting": "[22]", "value": 108, "unit": "%"},
      {"measurement": "viability, T/C", "setting": "[23]", "value": 105, "unit": "%"},
      {"measurement": "viability, T/C", "setting": "[24]", "value": 94.3, "unit": "%"},
      {"measurement": "viability, T/C", "setting": "[25]", "value": 102, "unit": "%"},
      {"measurement": "viability, T/C", "setting": "[26]", "value": 99.5, "unit": "%"},
      {"measurement": "viability, T/C", "setting": "[27]", "value": 104, "unit": "%"},
      {"measurement": "viability, T/C", "setting": "[28]", "value": 99, "unit": "%"},
      {"measurement": "viability, T/C", "setting": "[29]", "value": 106, "unit": "%"},
      {"measurement": "viability, T/C", "setting": "[30]", "value": 97.5, "unit": "%"},
      {"measurement": "viability, T/C", "setting": "[31]", "value": 99.2, "unit": "%"},
      {"measurement": "viability, T/C", "setting": "[32]", "value": 102, "unit": "%"},
      {"measurement": "viability, T/C", "setting": "[33]", "value": 99.4, "unit": "%"},
      {"measurement": "viability, T/C", "setting": "[34]", "value": 96.6, "unit": "%"},
      {"measurement": "viability, T/C", "setting": "[35]", "value": 100, "unit": "%"},
      {"measurement": "viability, T/C", "setting": "[36]", "value": 91, "unit": "%"}
    ]}
  ]
}
